Measured values from ChEMBL document CHEMBL1268854, “A Bisindole Alkaloid with Hedgehog Signal Inhibitory Activity from the Myxomycete Perichaena chrysosperma” (J Nat Prod, 2010).

Tests used:
DU-145 = assay: Cytotoxicity against human DU145 cells after 24 hrs; format: functional, cell-based; settings: DU-145, 24 h
PANC-1 = assay: Cytotoxicity against human PANC1 cells after 24 hrs; format: functional, cell-based; settings: PANC-1, 24 h
[1] = Cytotoxicity against mouse C3H10T1/2 cells after 24 hrs; format: cell-based; settings: C3H 10T1/2, 24 h
[2] = Inhibition of hedgehog signaling pathway in human HaCaT cells assessed as inhibition of GLI1-mediated transcriptional activity; format: cell-based

COC1NC(=O)c2c1c1c3ccccc3[nH]c1c1[nH]c3cc(O)ccc3c21 (centres undefined)
IC50 (DU-145): 4.2 µM
IC50 (PANC-1): 5 µM
IC50 [1]: > 14 µM
IC50 [2]: 4.6 µM
